Source: patent USRE43879E1, “Use of the dextrogyral enantiomer of milnacipran for the preparation of a drug” (priority 2003, dated 2012)
Read-outs that look alike come from different tables or passages of the source.

Tests used:
[1] = in vivo
Description: In animals, the pharmacokinetics of each enantiomer were studied following administration of the racemate or of one single enantiomer.

[2] = molecular target: 3H-norepinephrine uptake (Rattus norvegicus, UniProt Q63380); experiment: biochemical
Protocol: Norepinephrine Uptake by a Homogenate (P2) of Rat Hypothalamus.
Male Sprague-Dawley rats, from 200 to 300 g, were stunned and decapitated, and the hypothalami were rapidly removed. Two hypothalami are homogenised in 4 ml of sucrose 0.32 M on a Potter S by 16 complete passes back and forth at 800 rpm, then centrifuged for 10 min at 1,000 g to eliminate cell debris. The supernate is centrifuged for 20 min at 10,000 g and the P2 thus obtained is recovered in 4 ml of sucrose 0.32 M, and homogenised on a Dounce.
^3H-(1)-NE: 13 Ci/mmol (Amersham) is used.
Uptake takes place in a phosphate buffer (containing 8 g of NaCl, 1.21 g of K2HPO4 and 0.34 g of KH2PO4 per liter) pre-oxygenated 30 min before use with a mixture of O2/CO2 (95%/5%).
In 5-ml plastic tubes placed in a water bath at 37° C., the following are introduced: • 100 μl of buffer or inhibitor, • 700 μl of buffer (containing 25 μM pargyline), • 100 μl of P2.
After temperature balance, the reaction begins by the addition of 100 μl of ^3H-NE, 50 nM final concentration.
Exactly 10 min later, the reaction is stopped by adding 2.5 ml of chilled buffer and filtering through GF/F filters. The tube is then rinsed once and the filter once with 2.5 ml of chilled buffer. The filter is then introduced into a Beckman mini-vial and, after adding 3 ml of Instagel (Packard) liquid scintillator, radioactivity is measured with a Tricarb Packard scintillation counter.
Non-specific uptake (NS) is measured as the presence of DMI 10^−5 M.
The percentage of inhibition is calculated using the formula:
The IC50 is determined graphically on the mean curve of percentage of inhibition (4 assays) in relation to the log of the concentration of inhibitor.

[3] = Pharmacokinetic study in man (12 healthy subjects), racemate or one enantiomer alone; type: in vivo; conditions: human, plasma; for half-life: read-out: T½ (converted)
Protocol: A pharmacokinetic study in man involving 12 healthy subjects was performed by administering the racemate or one of the two enantiomers alone.

[4] = molecular target: T1, 3H-paroxetine binding (Rattus norvegicus, UniProt P31652); experiment: Paroxetine binding, rat hypothalamus membranes
T1 construct: the hypothalamus was removed, weighed and homogenised on a Dounce; from tissue
Protocol: 2.1.3. Paroxetine Binding
Male Sprague-Dawley rats (Janvier) weighing 180-200 g were used. The hypothalami of several rats were collected and homogenised in 5 ml of chilled buffer (50 mM Tris-HCL, 120 mM NaCl, 5 mM KCl, pH 7.5) on a Dounce, and the homogenate was centrifuged at 30 000 g (27 000 rpm-Beckman. L5-50E, T40 rotor) for 10 min. The residue obtained was recovered in 5 ml of buffer and re-centrifuged under the same conditions. The new residue was recovered in the same buffer and finally re-homogenised on a Dounce at a tissue concentration of 10 mg/ml. The membrane suspension (100 μl) was incubated with 3H-paroxetine (NEN, France, 28.6 Ci/mmol) at a concentration (final) of 0.1 nM, at 20° C., in a final volume of 1 ml for 2 hr. After 2 hr incubation, the reaction was stopped by vacuum filtration on Whatman GF/F filters pre-treated in a 0.05% solution of polyethylenimine 30 min beforehand (prediluted with 4 ml of chilled buffer, then the tube was rinsed with 2 times 4 ml). Radioactivity was measured by liquid scintillation spectrometry (Packard, Tricarb 4640) using Emulsifier-Safe (Packard) as the scintillating agent.
Specific ^3H-paroxetine binding was defined as the difference between total binding and that remaining in the presence of 10 μM of fluoxetine.
The IC50 were determined by transposing the percentages of inhibition onto a graph in relation to the log of the concentration of the product (6 concentrations in duplicate).

[5] = molecular target: T2, 3H-serotonin uptake (Rattus norvegicus, UniProt P31652); experiment: Serotonin uptake, rat hypothalamus P2 fraction (synaptosomes); type: biochemical
T2 construct: the hypothalamus was removed, weighed and homogenised on a Dounce; from tissue
Protocol: After homogenisation of brain tissue in a sucrose solution, the presynaptic terminals break away from the axon and close to form synaptosomes obtained by subcellular fractionation.
Male Sprague-Dawley (Janvier) rats weighing 180-200 g were used.
This homogenate was centrifuged for 10 min at 1,000 g (2,400 rpm-Hettich, Rotenta). […] The residue (called the P2 fraction) was recovered in sucrose at a concentration of 50 mg/ml.
Exactly 5 min after the start of incubation, the reaction was stopped by vacuum filtration on Whatman GF/F filters (predilution with 2.5 ml of chilled buffer then rinsing with 3 times 2.5 ml).
The IC50 were determined by transposing the percentages of inhibition onto a graph in relation to the log of the product concentration (6 concentrations in duplicate).

[6] = test system: primary rat hepatocytes; experiment: Safe-Hit genomic test of predictive toxicology (Toxicity Index) on primary rat hepatocytes; type: cell-based; conditions: 16 h
Description: After treatment of the primary rat hepatocytes in culture, the RNA was extracted in order to generate labelled complementary-DNA probes which were then hybridised on a membrane containing 682 alternatively-spliced fragments specific to cell stress. A Toxicity Index was obtained for each of the products by comparing the hybridisation profile of the treated cells with that of the untreated cells.
Safe-Hit allows molecules within a chemical series to be ranked according to a Toxic Index, determined after the following basic steps (systematically performed in duplicate for each product): • treatment of the cells lines with the various products at three different concentrations, deduced from a preliminary cytotoxicology test (MTT-assay): a reference concentration corresponding to 80% cell viability, a concentration 10-fold higher—when possible—and a concentration 10-fold lower, • preparation of total RNA and of the corresponding radio-labelled cDNA probes, • hybridisation of the cDNA probes: the Safe-Hit macroarray contains 682 independent clones, corresponding to alterations in gene splicing induced by overexpression of WTp53 (p53 is the most ubiquitous “mediator” of cell stress, chosen for the development of this methodology), • acquisition and determination of the Toxicity Index. 4.1.2. Cells
The cells used in the study (preliminary MTT-assay of cytotoxicity and the main test) are cryopreserved hepatocytes from Sprague-Dawley rats in primary culture (batches Hep184005 and Hep184006-Biopredic), cultured under standard conditions.
The cells are seeded and cultured for 16 hours with each product, at the three concentrations chosen on the basis of the preliminary MTT-assay; two controls (untreated cells in solvent alone) are added to the series.
The results of the two Safe-Hit analyses are then compared and combined to assess the potential toxicity of the various compounds tested. Two parameters that can be modified by the user are involved in the calculation of the Toxicity Index: • Background Threshold (BT) smoothes out weak signals, close to background noise and not attributable to significant gene expression. […] The value of this parameter is usually 2 or less than 2 in order to obtain relevant results. […]
Toxicity Indices (TI) were determined as described above. […] Two separate analyses were performed using two levels of differentiation (Induction Factor-IF) in relation to the untreated controls: • a factor of at least 1.7 in relation to the untreated controls. This factor of 1.7 times represents the weakest value that allows an index not to be obtained in relation to the two untreated controls. • a factor of at least 2 in relation to the untreated controls. This factor of 2 times allows the most robust signals to be taken into account. 4.3.1. Induction Factor of 1.7 in Relation to Untreated Control (Table 7)

[7] = test system: primary rat hepatocytes; experiment: Cytotoxicity test (MTT-assay) on primary rat hepatocytes; type: cell-based; conditions: 16 hours
Protocol: The […] and […] compounds, enantiomers of the racemic molecule […], as well as clomipramine, a reference product, (coded […] in the study) were assessed in the present study. The two enantiomers, […] and […], were first assessed in a preliminary cytotoxicity text (MTT-assay) on primary rat hepatocytes, in order to select the three concentrations to be used in the final test. The cells used in the study (preliminary MTT-assay of cytotoxicity and the main test) are cryopreserved hepatocytes from Sprague-Dawley rats in primary culture (batches Hep184005 and Hep184006-Biopredic), cultured under standard conditions. […] Formazan is solubilised in an organic solvent and the solution obtained can be measured by spectrophotometry. The absorbance measured is proportional to the number of surviving cells. The cells are put into contact with the product to be tested at […] (0-1-10-25-50 and 100 μM) for 16 hours. After this period of exposure, an MTT solution (0.5 mg/ml in the incubation medium of the primary hepatocytes) is added for 3 hours. After solubilisation of the formazan crystals, the multi-well plates are read with a spectrophotometer at 500 nm in order to determine the percentage of cell viability. These assays were performed in triplicate on primary rat hepatocytes exposed for 16 hours.

[8] = enantiomer administered alone (25 mg)
[9] = enantiomer assayed after F2207 (50 mg)

T2 sequence (P31652 whole entry): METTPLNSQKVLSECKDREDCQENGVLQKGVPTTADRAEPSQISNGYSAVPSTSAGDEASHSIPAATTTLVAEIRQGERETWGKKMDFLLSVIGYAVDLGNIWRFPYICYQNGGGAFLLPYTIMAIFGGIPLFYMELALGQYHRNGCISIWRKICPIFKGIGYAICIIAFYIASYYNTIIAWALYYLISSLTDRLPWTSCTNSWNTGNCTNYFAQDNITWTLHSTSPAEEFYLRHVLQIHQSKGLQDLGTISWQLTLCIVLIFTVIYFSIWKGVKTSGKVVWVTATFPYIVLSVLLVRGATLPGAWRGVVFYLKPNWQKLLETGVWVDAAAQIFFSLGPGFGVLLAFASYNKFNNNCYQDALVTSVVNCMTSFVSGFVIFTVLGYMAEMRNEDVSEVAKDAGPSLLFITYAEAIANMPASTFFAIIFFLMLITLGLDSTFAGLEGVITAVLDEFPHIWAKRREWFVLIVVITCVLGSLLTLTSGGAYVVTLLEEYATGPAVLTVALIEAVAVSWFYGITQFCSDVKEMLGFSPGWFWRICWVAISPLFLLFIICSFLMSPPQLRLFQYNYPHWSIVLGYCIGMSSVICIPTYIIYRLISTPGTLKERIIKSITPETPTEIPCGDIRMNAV
T1 sequence (P31652 whole entry): as above
3H-norepinephrine uptake, sequence (Q63380 1-617): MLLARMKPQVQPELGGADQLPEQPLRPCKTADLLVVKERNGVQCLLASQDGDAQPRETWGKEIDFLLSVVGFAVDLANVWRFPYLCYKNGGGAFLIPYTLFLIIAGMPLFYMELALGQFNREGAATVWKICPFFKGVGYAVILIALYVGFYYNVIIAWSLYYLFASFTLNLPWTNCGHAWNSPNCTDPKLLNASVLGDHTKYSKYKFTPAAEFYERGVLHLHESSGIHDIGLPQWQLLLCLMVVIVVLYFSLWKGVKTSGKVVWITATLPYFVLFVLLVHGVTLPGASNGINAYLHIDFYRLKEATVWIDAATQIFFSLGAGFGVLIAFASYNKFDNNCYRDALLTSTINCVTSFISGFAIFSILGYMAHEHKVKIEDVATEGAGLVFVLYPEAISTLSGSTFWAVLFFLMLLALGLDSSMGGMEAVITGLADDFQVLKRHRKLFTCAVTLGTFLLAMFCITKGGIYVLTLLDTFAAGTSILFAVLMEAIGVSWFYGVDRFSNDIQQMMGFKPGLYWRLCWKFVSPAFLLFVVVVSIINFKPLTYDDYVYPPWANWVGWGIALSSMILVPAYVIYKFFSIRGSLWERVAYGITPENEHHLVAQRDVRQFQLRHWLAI

## CCN(CC)C(=O)[C@@]1(c2ccccc2)C[C@H]1CN [F2695, Z-(1S,2R)-2-(aminomethyl)-N,N-diethyl-1-phenyl cyclopropane carboxamide]
[1]; monkey
  Plasma concentrations of the enantiomers compared: approximately equivalent
[1]; rat
  Plasma concentrations of the enantiomers compared: approximately equivalent
[2]
  IC50: 0.015 µM
[3]; [8]
  AUC(0-inf): 2.87 µM·h
  Cmax: 216 nM
  Tmax: 3.08 h
  half-life: 9.38 h
[3]; [9]
  AUC(0-inf): 2.9 µM·h
  Cmax: 214 nM
  Tmax: 3.42 h
  half-life: 9.28 h
[4]
  IC50: 0.06 µM
[5]
  IC50: 0.046 µM
[6]; Sprague-Dawley, rat, 100 μM
  Clone Q11 (unk), regulation factor vs untreated control: 1.81
  Number of down-regulated clones (Down): 1
  Number of up-regulated clones (Up): 1

## CN(C)CCCN1c2ccccc2CCc2ccc(Cl)cc21 [C218, clomipramine]
[7]; 25 μM
  Toxicity in MTT-assay: no toxicity was observed
[7]; 50 μM
  Cell viability in MTT-assay: greater than 80%
[7]; 100 μM
  Cytotoxicity / cell viability in MTT-assay: no cell viability was observed
[6]; 1 μM
  Clone A09 (H. sapiens mitochondrion, 12S), regulation factor vs untreated control: 2.90
  Clone AA11 (H. sapiens Repeat sequence AluJb fragment inserted into a cDNA coding for an unknown protein), regulation factor vs untreated control: 0.38
  Clone AC13 (H. sapiens 7S RNA L gene), regulation factor vs untreated control: 0.28
  Clone C01 (H. sapiens mitochondrion, 16S), regulation factor vs untreated control: 1.93
  Clone T08 (H. sapiens mRNA for KIAA1185 protein), regulation factor vs untreated control: 0.35
  Clone U04 (H. sapiens translation initiation factor elF-2alpha mRNA), regulation factor vs untreated control: 0.48
  Clone X02 (unk), regulation factor vs untreated control: 0.36
  Clone X06 (H. sapiens Genomic sequence from 9q34), regulation factor vs untreated control: 0.23
  Clone Z13 (unk), regulation factor vs untreated control: 0.34
[6]; 10 μM
  Clone A09 (H. sapiens mitochondrion, 12S), regulation factor vs untreated control: 2.23
  Clone AA11 (H. sapiens Repeat sequence AluJb fragment inserted into a cDNA coding for an unknown protein), regulation factor vs untreated control: 0.27
  Clone AC13 (H. sapiens 7S RNA L gene), regulation factor vs untreated control: 0.16
  Clone B20 (H. sapiens chromosome 19, BAC CIT-B-191n6), regulation factor vs untreated control: 0.14
  Clone B22 (H. sapiens Genomic sequence from 17), regulation factor vs untreated control: 0.17
  Clone C01 (H. sapiens mitochondrion, 16S), regulation factor vs untreated control: 1.82
  Clone E05 (H. sapiens DNA sequence from clone 740A11 on chromosome Xq22.2-23, part of COL4A5 gene), regulation factor vs untreated control: 0.22
  Clone E21 (H. sapiens ribosomal protein S14 gene), regulation factor vs untreated control: 0.56
  Clone M12 (H. sapiens mRNA; cDNA DKFZp564C1563), regulation factor vs untreated control: 0.16
  Clone T08 (H. sapiens mRNA for KIAA1185 protein), regulation factor vs untreated control: 0.14
  Clone U04 (H. sapiens translation initiation factor elF-2alpha mRNA), regulation factor vs untreated control: 0.22
  Clone X02 (unk), regulation factor vs untreated control: 0.24
  Clone X05 (H. sapiens microsomal epoxide hydrolase (EPHX) gene), regulation factor vs untreated control: 0.15
  Clone X06 (H. sapiens Genomic sequence from 9q34), regulation factor vs untreated control: 0.15
  Clone Z13 (unk), regulation factor vs untreated control: 0.29
[6]; 100 μM
  Clone A09 (H. sapiens mitochondrion, 12S), regulation factor vs untreated control: 2.14
  Clone AA11 (H. sapiens Repeat sequence AluJb fragment inserted into a cDNA coding for an unknown protein), regulation factor vs untreated control: 0.31
  Clone AA13 (H. sapiens 18S rRNA gene), regulation factor vs untreated control: 1.79
  Clone AC13 (H. sapiens 7S RNA L gene), regulation factor vs untreated control: 0.28
  Clone B20 (H. sapiens chromosome 19, BAC CIT-B-191n6), regulation factor vs untreated control: 0.27
  Clone B22 (H. sapiens Genomic sequence from 17), regulation factor vs untreated control: 0.32
  Clone C01 (H. sapiens mitochondrion, 16S), regulation factor vs untreated control: 1.91
  Clone E01 (H. sapiens mRNA for lipocortin II), regulation factor vs untreated control: 1.73
  Clone E05 (H. sapiens DNA sequence from clone 740A11 on chromosome Xq22.2-23, part of COL4A5 gene), regulation factor vs untreated control: 0.35
  Clone E19 (H. sapiens mitochondrion, cytochrome c oxidase subunit 1), regulation factor vs untreated control: 1.72
  Clone E21 (H. sapiens ribosomal protein S14 gene), regulation factor vs untreated control: 0.58
  Clone F24 (H. sapiens LIM homeobox protein cofactor (CLIM-1) mRNA), regulation factor vs untreated control: 0.52
  Clone G01 (H. sapiens estrogen receptor-related protein (variant ER from breast cancer) mRNA), regulation factor vs untreated control: 2.04
  Clone G05 (H. sapiens mitochondrion, cytochrome c oxidase subunit 1), regulation factor vs untreated control: 2.02
  Clone G09 (H. sapiens mitochondrion, cytochrome b), regulation factor vs untreated control: 1.76
  Clone I18 (H. sapiens 18S rRNA gene), regulation factor vs untreated control: 1.88
  Clone L23 (H. sapiens cDNA NIH_MGC_16 clone IMAGE: 3350241 5′, mRNA sequence), regulation factor vs untreated control: 1.75
  Clone M07 (H. sapiens mitochondrion, cytochrome c oxidase subunit 1), regulation factor vs untreated control: 1.75
  Clone M12 (H. sapiens mRNA; cDNA DKFZp564C1563), regulation factor vs untreated control: 0.39
  Clone Q11 (unk), regulation factor vs untreated control: 1.92
  Clone S01 (Mus muculus TCR beta locus), regulation factor vs untreated control: 2.98
  Clone T08 (H. sapiens mRNA for KIAA1185 protein), regulation factor vs untreated control: 0.22
  Clone U04 (H. sapiens translation initiation factor elF-2alpha mRNA), regulation factor vs untreated control: 0.37
  Clone X02 (unk), regulation factor vs untreated control: 0.31
  Clone X05 (H. sapiens microsomal epoxide hydrolase (EPHX) gene), regulation factor vs untreated control: 0.24
  Clone X06 (H. sapiens Genomic sequence from 9q34), regulation factor vs untreated control: 0.23
  Clone Z13 (unk), regulation factor vs untreated control: 0.27
  Clone Z20 (Homo sapiens cDNA wc44h09, similar to RAS_RELATED PROTEIN RAB-24, mRNA sequence), regulation factor vs untreated control: 0.57
[6]; Induction Factor 1.7, 1 μM
  Number of down-regulated clones (Down): 7
  Number of up-regulated clones (Up): 2
  Toxicity Index (TI, number of signatures): 9
[6]; Induction Factor 1.7, 10 μM
  Number of down-regulated clones (Down): 13
  Number of up-regulated clones (Up): 2
  Toxicity Index (TI, number of signatures): 15
[6]; Induction Factor 1.7, 50 μM
  Toxicity Index (TI, number of signatures): 28
[6]; Induction Factor 1.7, 100 μM
  Number of down-regulated clones (Down): 15
  Number of up-regulated clones (Up): 13
  Toxicity Index (TI, number of signatures): 28
[6]; Induction Factor 2, 1 μM
  Number of down-regulated clones (Down): 7
  Number of up-regulated clones (Up): 1
  Toxicity Index (TI, number of signatures): 8
[6]; Induction Factor 2, 10 μM
  Number of down-regulated clones (Down): 12
  Number of up-regulated clones (Up): 1
  Toxicity Index (TI, number of signatures): 13
[6]; Induction Factor 2, 50 μM
  Toxicity Index (TI, number of signatures): 16
[6]; Induction Factor 2, 100 μM
  Number of down-regulated clones (Down): 12
  Number of up-regulated clones (Up): 4
  Toxicity Index (TI, number of signatures): 16
